CSCC1CN(/N=C/c2ccc([N+](=O)[O-])o2)C(=O)O1 (configuration not stated)
solubility (mole fraction)
Conditions | 293.15 K | 298.15 K | 303.15 K | 308.15 K | 313.15 K | 318.15 K | 323.15 K | 328.15 K | 333.15 K
in DMF | 0.012 | 0.015 | 0.0186 | 0.0229 | 0.0279 | 0.0338 | 0.0405 | 0.0483 | 0.0571
in DMSO | 0.0172 | 0.021 | 0.0255 | 0.0307 | 0.0367 | 0.0435 | 0.0511 | 0.0596 | 0.069
in THF | 0.000618 | 0.000801 | 0.00103 | 0.00131 | 0.00166 | 0.00209 | 0.0026 | 0.00322 | 0.00397
in acetic acid | 0.000206 | 0.000275 | 0.000364 | 0.000479 | 0.000624 | 0.000808 | 0.00104 | 0.00133 | 0.00168
in acetone | 0.00109 | 0.0014 | 0.00178 | 0.00225 | 0.00281 | 0.0035 | 0.00432 | 0.0053 | –
in acetonitrile | 0.00235 | 0.00296 | 0.00369 | 0.00457 | 0.00562 | 0.00687 | 0.00835 | 0.0101 | 0.0121
in dichloromethane | 0.00151 | 0.00192 | 0.00242 | 0.00303 | – | – | – | – | –
in ethanol | 1.98e-05 | 2.7e-05 | 3.65e-05 | 4.89e-05 | 6.49e-05 | 8.54e-05 | 0.000111 | 0.000144 | 0.000185
in ethyl acetate | 0.000224 | 0.000297 | 0.000389 | 0.000505 | 0.000651 | 0.000832 | 0.00106 | 0.00133 | 0.00167
in isopropanol | 1.45e-05 | 2e-05 | 2.73e-05 | 3.69e-05 | 4.94e-05 | 6.56e-05 | 8.63e-05 | 0.000113 | 0.000146
in methanol | 3.84e-05 | 5.31e-05 | 7.26e-05 | 9.85e-05 | 0.000132 | 0.000177 | 0.000234 | 0.000308 | 0.000403
in water | 1.53e-05 | 2.06e-05 | 2.75e-05 | 3.63e-05 | 4.74e-05 | 6.16e-05 | 7.93e-05 | 0.000101 | 0.000129

Source: BigSolDB 2.1
